Settings: Liquid, isochoric method

CCn1cc[n+](C)c1.O=S(=O)([O-])C(F)(F)F [1-ethyl-3-methylimidazolium trifluoromethanesulfonate]
Settings | mass density [kg/m3]
264.14 K, 39698 kPa | 1434.17
264.21 K, 29714 kPa | 1429.2
264.31 K, 10134 kPa | 1419.79
265.07 K, 1265.2 kPa | 1414.41
271.03 K, 50162 kPa | 1433.46
271.03 K, 50199 kPa | 1433.45
271.04 K, 9677.3 kPa | 1413.82
271.04 K, 11097 kPa | 1414.79
271.04 K, 19702 kPa | 1419.12
271.04 K, 29909 kPa | 1424.08
271.04 K, 30156 kPa | 1424.07
271.04 K, 40035 kPa | 1428.5
271.04 K, 40309 kPa | 1428.49
271.04 K, 60071 kPa | 1437.92
271.05 K, 20286 kPa | 1419.1
271.4 K, 1190.5 kPa | 1408.62
272.28 K, 2655.9 kPa | 1408.53
277.45 K, 49840 kPa | 1427.83
277.68 K, 39776 kPa | 1423.39
277.8 K, 30125 kPa | 1418.42
277.84 K, 10946 kPa | 1407.96
277.84 K, 19967 kPa | 1413.12
284.58 K, 20183 kPa | 1407.3
284.65 K, 40227 kPa | 1417.71
284.69 K, 60421 kPa | 1427.09
284.73 K, 50105 kPa | 1422.67
284.93 K, 30204 kPa | 1412.4
285.1 K, 728.1 kPa | 1397.61
291.42 K, 29930 kPa | 1406.61
291.49 K, 49838 kPa | 1417.02
291.92 K, 10046 kPa | 1396.94
291.92 K, 41361 kPa | 1412.67
291.94 K, 40088 kPa | 1411.69
292.62 K, 61503 kPa | 1421.86
298.19 K, 124.2 kPa | 1386.18
298.19 K, 39944 kPa | 1405.91
299.14 K, 60111 kPa | 1416.26
299.19 K, 50157 kPa | 1410.96
299.54 K, 20406 kPa | 1396.18
300.18 K, 1687.5 kPa | 1385.35
305.75 K, 49851 kPa | 1405.17
306.58 K, 60078 kPa | 1410.23
306.75 K, 10122 kPa | 1384.72
306.76 K, 29599 kPa | 1395.48
313.35 K, 59888 kPa | 1404.41
314.04 K, 19458 kPa | 1384.01
314.64 K, 40402 kPa | 1394.69
315.41 K, 1377.5 kPa | 1372.29
322.27 K, 50268 kPa | 1393.94
322.29 K, 30090 kPa | 1383.21
322.3 K, 9799.1 kPa | 1371.63
329.98 K, 59857 kPa | 1393.19
330.68 K, 40501 kPa | 1382.4
331.49 K, 1256.6 kPa | 1358.62
332.56 K, 22229 kPa | 1370.66
338.11 K, 9067.3 kPa | 1358
338.47 K, 50063 kPa | 1381.64
339.28 K, 30155 kPa | 1370.02
346.74 K, 59641 kPa | 1380.85
347.76 K, 20122 kPa | 1357.09
347.76 K, 40116 kPa | 1369.21

CCCCCCn1cc[n+](C)c1.F[B-](F)(F)F [1-hexyl-3-methylimidazolium tetrafluoroborate]
Settings | mass density [kg/m3]
219.92 K, 2501.7 kPa | 1205.15
225.14 K, 11244 kPa | 1204.69
230.79 K, 1012.8 kPa | 1196.2
231.39 K, 21744 kPa | 1204.14
236.44 K, 10093 kPa | 1195.71
236.46 K, 30111 kPa | 1203.69
242.31 K, 19417 kPa | 1195.2
243.65 K, 1941.6 kPa | 1186.98
243.68 K, 41792 kPa | 1203.05
248.82 K, 49885 kPa | 1202.6
249.02 K, 10085 kPa | 1186.52
249.02 K, 30013 kPa | 1194.61
255.69 K, 20148 kPa | 1185.95
255.99 K, 40643 kPa | 1194.01
256.48 K, 1742.5 kPa | 1177.35
262.31 K, 10140 kPa | 1176.87
262.31 K, 30102 kPa | 1185.39
263.02 K, 51186 kPa | 1193.4
268.9 K, 59865 kPa | 1192.9
269.12 K, 19855 kPa | 1176.3
269.39 K, 40201 kPa | 1184.79
269.9 K, 2119.2 kPa | 1166.18
275.8 K, 10046 kPa | 1165.7
275.8 K, 29402 kPa | 1175.74
276.43 K, 50285 kPa | 1184.19
283.5 K, 20904 kPa | 1165.06
283.57 K, 60349 kPa | 1183.59
283.61 K, 39900 kPa | 1175.1
284.27 K, 2189.9 kPa | 1156.39
290.66 K, 30442 kPa | 1164.48
290.67 K, 30768 kPa | 1165.27
290.73 K, 10282 kPa | 1155.88
290.73 K, 29904 kPa | 1164.49
290.94 K, 49928 kPa | 1174.49
298.15 K, 104 kPa | 1146.14
298.15 K, 39688 kPa | 1164.06
298.15 K, 40557 kPa | 1164.66
298.17 K, 39707 kPa | 1163.88
298.17 K, 40239 kPa | 1163.87
298.52 K, 20112 kPa | 1155.26
299.11 K, 712.5 kPa | 1145.27
299.38 K, 61164 kPa | 1173.79
305.93 K, 49286 kPa | 1163.44
305.93 K, 49685 kPa | 1163.24
306.82 K, 10007 kPa | 1144.66
306.83 K, 30854 kPa | 1154.59
314.42 K, 60539 kPa | 1162.55
315.25 K, 20171 kPa | 1144
315.38 K, 41468 kPa | 1153.9
315.84 K, 1234.2 kPa | 1133.94
322.71 K, 50376 kPa | 1153.32
323.55 K, 9964.4 kPa | 1133.35
323.55 K, 29837 kPa | 1143.36
330.59 K, 59794 kPa | 1152.68
332.16 K, 39991 kPa | 1142.68
332.36 K, 19953 kPa | 1132.67
333.47 K, 1089.8 kPa | 1121.71
340.92 K, 49956 kPa | 1141.99
341.61 K, 9779.8 kPa | 1121.11
341.63 K, 29941 kPa | 1131.97
349.19 K, 1374.3 kPa | 1111.71
349.88 K, 60027 kPa | 1141.28
350.49 K, 39672 kPa | 1131.28
351.2 K, 20298 kPa | 1120.38
357.12 K, 9595.1 kPa | 1111.13
357.12 K, 26381 kPa | 1119.93
357.12 K, 46792 kPa | 1130.77

CCCCCCn1cc[n+](C)c1.O=S(=O)([O-])C(F)(F)F [1-hexyl-3-methylimidazolium trifluoromethanesulfonate]
Settings | mass density [kg/m3]
303.14 K, 103.8 kPa | 1234.94
303.15 K, 8671.3 kPa | 1241.37
303.15 K, 9948.5 kPa | 1242.12
303.15 K, 10145 kPa | 1241.33
303.15 K, 18778 kPa | 1246.84
303.15 K, 29540 kPa | 1252.92
303.15 K, 50077 kPa | 1263.74
303.15 K, 50213 kPa | 1263.74
303.16 K, 19876 kPa | 1246.81
303.16 K, 30131 kPa | 1252.9
303.16 K, 40525 kPa | 1258.84
303.16 K, 40749 kPa | 1258.84
303.93 K, 1169.5 kPa | 1236.1
311.1 K, 19363 kPa | 1240.66
311.1 K, 50109 kPa | 1258.15
311.4 K, 59971 kPa | 1263.03
311.64 K, 29371 kPa | 1246.09
312.12 K, 10064 kPa | 1235.43
312.13 K, 19984 kPa | 1241.37
312.35 K, 40711 kPa | 1252.12
312.67 K, 1137.8 kPa | 1229.31
320.01 K, 60231 kPa | 1257.4
320.69 K, 29908 kPa | 1239.86
321.26 K, 40148 kPa | 1245.28
321.32 K, 10225 kPa | 1228.6
321.34 K, 19896 kPa | 1234.67
321.7 K, 51336 kPa | 1251.33
322.86 K, 1202 kPa | 1221.53
330.07 K, 40113 kPa | 1239.07
330.33 K, 60665 kPa | 1250.61
330.45 K, 29706 kPa | 1233.91
330.66 K, 50504 kPa | 1244.49
331.61 K, 20974 kPa | 1227.76
331.62 K, 10028 kPa | 1220.82
332.5 K, 1153.4 kPa | 1214.09
339.16 K, 49816 kPa | 1238.32
339.45 K, 59226 kPa | 1243.78
340.07 K, 39808 kPa | 1233.11
340.31 K, 30074 kPa | 1227.04
341.51 K, 9933.5 kPa | 1213.37
341.52 K, 20038 kPa | 1220.02
342.34 K, 977.2 kPa | 1206.6
348.25 K, 58008 kPa | 1237.59
349.94 K, 49966 kPa | 1232.3
350.06 K, 39798 kPa | 1226.25
351.54 K, 29910 kPa | 1219.2
351.77 K, 10055 kPa | 1205.85
351.77 K, 19878 kPa | 1212.55
